Data on 1 substance can be found in patent US10144758B2, “Deuterated bile acids” (Metselex, Inc., priority 2013, dated 2018).

For data set [1], the system named is primary rat hepatocytes. The data set can be described thus: TGF-β1-induced cytotoxicity, LDH release. The class given is cell-based. Particulars: 1 nM TGF-β1 36 hours; 100 μM compound; FIG. 8A. The protocol:
Primary rat hepatocytes were isolated from male rats (100-150 grams) by collagenase perfusion (as described by Solá S, et al., 2003, Journal of Biological Chemistry 278: 48831-48838)). Briefly, rats were anesthetized with phenobarbital sodium (100 mg/kg body weight) injected into the peritoneal cavity. After administration of heparin (200 units/kg body weight) in the tail vein, the animal's abdomen was opened and the portal vein exposed and cannulated. The liver was then perfused at 37° C. in situ with a calcium-free Hanks' Balanced Salt Solution (HBSS) for about 10 minutes, and then with 0.05% collagenase type IV in calcium-present HBSS for another 10 minutes. […] Cell viability was determined by trypan blue exclusion and was typically 80-85%. […]
The ApoTox-Glo™ Triplex Assay (Promega Corp., Madison, Wis., USA) was used to evaluate cell viability, cytotoxicity and caspase-3/7 activity, according to the manufacturer's protocol, using a GloMax+ Multi Detection System (Promega Corp.). General cell death was also evaluated using the lactate dehydrogenase (LDH) Cytotoxicity Detection Kit^PLUS (Roche Diagnostics GmbH, Mannheim, Germany), following the manufacturer's instructions. […]
In general terms: Release of lactate dehydrogenase indicates damage to the cell membrane.

In data set [2] the test system is primary rat hepatocytes. As to the kind of experiment: Cytotoxicity of compound alone (ApoTox-Glo Triplex / LDH Cytotoxicity Detection Kit). The class given is cell-based. On the procedure:
Primary rat hepatocytes were isolated from male rats (100-150 grams) by collagenase perfusion (as described by Solá S, et al., 2003, Journal of Biological Chemistry 278: 48831-48838)). Briefly, rats were anesthetized with phenobarbital sodium (100 mg/kg body weight) injected into the peritoneal cavity. After administration of heparin (200 units/kg body weight) in the tail vein, the animal's abdomen was opened and the portal vein exposed and cannulated. The liver was then perfused at 37° C. in situ with a calcium-free Hanks' Balanced Salt Solution (HBSS) for about 10 minutes, and then with 0.05% collagenase type IV in calcium-present HBSS for another 10 minutes. Hepatocyte suspensions were obtained by passing collagenase-digested livers through 125 μm gauze and washing cells in Complete William's E medium (William's E medium, Sigma-Aldrich Corp., St Louis, Mo., USA) supplemented with 26 mM sodium bicarbonate, 23 mM HEPES, 0.01 units/mL insulin, 2 mM L-glutamine, 10 nM dexamethasone, 100 units/mL penicillin, and 10% heat-inactivated fetal bovine serum (Invitrogen Corp., Carlsbad, Calif., USA). Viable primary rat hepatocytes were enriched by low-speed centrifugation at 200 g for 3 minutes. Cell viability was determined by trypan blue exclusion and was typically 80-85%. After isolation, hepatocytes were resuspended in Complete William's E medium and plated on Primaria™ tissue culture dishes (BD Biosciences, San Jose, Calif., USA) at 5×10^4 cells/cm^2. Cells were maintained at 37° C. in a humidified atmosphere of 5% CO2 for 6 hours to allow attachment. Plates were then washed with medium to remove dead cells and incubated in Complete William's E medium supplemented with either 100-400 μM UDCA (Sigma-Aldrich Corp.), 100-400 μM deuterated UDCA (compound 5), or no addition (control). Eight hours after pre-incubation, cells were exposed to 1 nM recombinant human TGF-β1 (R&D Systems Inc., Minneapolis, Minn., USA) for 36 hours, or to 50 or 100 μM DCA for 16 hours before processing for cell viability, cytotoxicity and apoptosis assays.
The ApoTox-Glo™ Triplex Assay (Promega Corp., Madison, Wis., USA) was used to evaluate cell viability, cytotoxicity and caspase-3/7 activity, according to the manufacturer's protocol, using a GloMax+ Multi Detection System (Promega Corp.). General cell death was also evaluated using the lactate dehydrogenase (LDH) Cytotoxicity Detection Kit^PLUS (Roche Diagnostics GmbH, Mannheim, Germany), following the manufacturer's instructions.

“7,8-[^2H]-3α,7α-dihydroxy-5β-cholan-24-oic acid/7-[^2H]-3α,7α-dihydroxy-5β-cholan-24-oic acid [Compound 5]”: the “more effective than UDCA at inhibiting TGF-β1-induced LDH release” value in data set [1] is given as “about 10%”. In data set [2] (400 μM, 24 and 44 hours), the “cytotoxicity compared with UDCA” value is reported as “comparable to UDCA cytotoxicity”. The increase in cytotoxicity in data set [2] (400 μM, 24 hours) was around 2%; in data set [2] (400 μM, 44 hours), around 15%. In addition, the signs of cytotoxicity entry in data set [2] (100 and 200 μM) is recorded as “no relevant signs of cytotoxicity”.
